# Test results: ChEMBL document CHEMBL5380795, “Design, Synthesis, and Bioactivity Investigation of Cyclic Lipopeptide Antibiotics Containing Eight to Nine Amino Acids” (J Med Chem, 2023)
# Bridge positions count the residues as written; N and C are the ends. Square brackets hold non-standard residues; d marks the D form. Peptide text beside a SMILES is read from it. * marks the point of attachment. X1 = CC[C@H](C)CCCCC(=O)*; Dab = NCC[C@H](N)C(=O)O
# Columns and labels:
# [1] = tested on: Staphylococcus epidermidis; experiment: Antibacterial activity against methicillin resistant Staphylococcus epidermidis clinical isolate 19-5 assessed as inhibition of bacterial growth incubated for 18 to 24 hrs by broth microdilution method; assay type: functional; conditions: time 18-24 hrs
# Pseudomonas aeruginosa [2] = experiment: Antibacterial activity against carbapenem resistant Pseudomonas aeruginosa clinical isolate 17-1 assessed as inhibition of bacterial growth incubated for 18 to 24 hrs by broth microdilution method; assay type: functional; conditions: time 18-24 hrs
# Staphylococcus aureus [3] = experiment: Antibacterial activity against Staphylococcus aureus ATCC 29213 assessed as inhibition of bacterial growth incubated for 18 to 24 hrs by broth microdilution method; assay type: functional; conditions: time 18-24 hrs
# Staphylococcus aureus [4] = experiment: Antibacterial activity against methicillin resistant Staphylococcus aureus ATCC 33591 assessed as inhibition of bacterial growth incubated for 18 to 24 hrs by broth microdilution method; assay type: functional; conditions: time 18-24 hrs
# Klebsiella pneumoniae [5] = experiment: Antibacterial activity against carbapenem resistant Klebsiella pneumoniae clinical isolate 19-15 assessed as inhibition of bacterial growth incubated for 18 to 24 hrs by broth microdilution method; assay type: functional; conditions: time 18-24 hrs
# Acinetobacter baumannii [6] = experiment: Antibacterial activity against carbapenem resistant Acinetobacter baumannii clinical isolate 19-8 assessed as inhibition of bacterial growth incubated for 18 to 24 hrs by broth microdilution method; assay type: functional; conditions: time 18-24 hrs
# Escherichia coli [7] = experiment: Antibacterial activity against Escherichia coli clinical isolate 19-2 assessed as inhibition of bacterial growth incubated for 18 to 24 hrs by broth microdilution method; assay type: functional; conditions: time 18-24 hrs
# Pseudomonas aeruginosa [8] = experiment: Antibacterial activity against Pseudomonas aeruginosa ATCC 27853 assessed as inhibition of bacterial growth incubated for 18 to 24 hrs by broth microdilution method; assay type: functional; conditions: time 18-24 hrs
# [9] = tested on: Staphylococcus epidermidis; experiment: Antibacterial activity against methicillin resistant Staphylococcus epidermidis clinical isolate 19-6 assessed as inhibition of bacterial growth incubated for 18 to 24 hrs by broth microdilution method; assay type: functional; conditions: time 18-24 hrs
# Klebsiella pneumoniae [10] = experiment: Antibacterial activity against KPC producing Klebsiella pneumoniae ATCC BAA-1705 assessed as inhibition of bacterial growth incubated for 18 to 24 hrs by broth microdilution method; assay type: functional; conditions: time 18-24 hrs
# Escherichia coli [11] = experiment: Antibacterial activity against Escherichia coli ATCC BAA-2523 assessed as inhibition of bacterial growth incubated for 18 to 24 hrs by broth microdilution method; assay type: functional; conditions: time 18-24 hrs
# Pseudomonas aeruginosa [12] = experiment: Antibacterial activity against carbapenem resistant Pseudomonas aeruginosa clinical isolate 19-3 assessed as inhibition of bacterial growth incubated for 18 to 24 hrs by broth microdilution method; assay type: functional; conditions: time 18-24 hrs
# Acinetobacter baumannii [13] = experiment: Antibacterial activity against oxacillinase-27 producing Acinetobacter baumannii NCTC 13304 assessed as inhibition of bacterial growth incubated for 18 to 24 hrs by broth microdilution method; assay type: functional; conditions: time 18-24 hrs
# Klebsiella pneumoniae [14] = experiment: Antibacterial activity against carbapenem resistant Klebsiella pneumoniae clinical isolate 19-17 assessed as inhibition of bacterial growth incubated for 18 to 24 hrs by broth microdilution method; assay type: functional; conditions: time 18-24 hrs
# Pseudomonas aeruginosa [15] = experiment: Antibacterial activity against Pseudomonas aeruginosa clinical isolate 19-1 assessed as inhibition of bacterial growth incubated for 18 to 24 hrs by broth microdilution method; assay type: functional; conditions: time 18-24 hrs
# [16] = Cytotoxicity against human HK-2 cells assessed as inhibition of cell growth incubated for 72 hrs by CCK-8 assay; assay type: toxicity, cell-based
# Escherichia coli [17] = experiment: Antibacterial activity against Escherichia coli NCTC 13353 assessed as inhibition of bacterial growth incubated for 18 to 24 hrs by broth microdilution method; assay type: functional; conditions: time 18-24 hrs
# [18] = Selectivity index, ratio of IC50 for cytotoxicity against human HK-2 cells to MIC for antibacterial activity against Escherichia coli ATCC BAA-2523; assay type: toxicity, cell-based
# Escherichia coli [19] = experiment: Antibacterial activity against KPC producing Escherichia coli ATCC BAA-2340 assessed as inhibition of bacterial growth incubated for 18 to 24 hrs by broth microdilution method; assay type: functional; conditions: time 18-24 hrs
Compound,MIC [1] [µg/mL],MIC (Pseudomonas aeruginosa [2]) [µg/mL],MIC (Staphylococcus aureus [3]) [µg/mL],MIC (Staphylococcus aureus [4]) [µg/mL],MIC (Klebsiella pneumoniae [5]) [µg/mL],MIC (Acinetobacter baumannii [6]) [µg/mL],MIC (Escherichia coli [7]) [µg/mL],MIC (Pseudomonas aeruginosa [8]) [µg/mL],MIC [9] [µg/mL],MIC (Klebsiella pneumoniae [10]) [µg/mL],MIC (Escherichia coli [11]) [µg/mL],MIC (Pseudomonas aeruginosa [12]) [µg/mL],MIC (Acinetobacter baumannii [13]) [µg/mL],MIC (Klebsiella pneumoniae [14]) [µg/mL],MIC (Pseudomonas aeruginosa [15]) [µg/mL],IC50 at 72 h [16] [µg/mL],MIC (Escherichia coli [17]) [µg/mL],selectivity ratio [18],MIC (Escherichia coli [19]) [µg/mL]
CCCCCCCCCC(=O)N[C@H](CCN)C(=O)N[C@H]1CCNC(=O)[C@H]([C@@H](C)O)NC(=O)[C@H](CCN)NC(=O)[C@H](CCN)NC(=O)[C@H](CC(C)C)NC(=O)[C@@H](Cc2cccc(Cl)c2)NC(=O)[C@H](CCN)NC1=O,2,32,32,64,4,16,2,32,2,2,2,2,16,4,2,42.5,4,21.3,1
CCCCCCCCCC(=O)N[C@H](CCN)C(=O)N[C@H]1CCNC(=O)[C@H]([C@@H](C)O)NC(=O)[C@H](CCN)NC(=O)[C@H](CCN)NC(=O)[C@H](CC(C)C)NC(=O)[C@@H](CC(C)C)NC(=O)[C@H](CCCN)NC1=O,4,> 64,> 64,> 64,> 64,> 64,> 64,> 64,32,> 64,> 64,> 64,> 64,> 64,> 64,277,> 64,< 4.3,> 64
CCCCCCCCCC(=O)N[C@H](CCN)C(=O)N[C@H]1CCNC(=O)[C@H]([C@@H](C)O)NC(=O)[C@H](CCN)NC(=O)[C@H](CCN)NC(=O)[C@H](CC(C)C)NC(=O)[C@@H](Cc2ccc(C)cc2)NC(=O)[C@H](CCN)NC1=O,2,32,32,> 64,4,32,2,32,2,2,1,1,16,4,1,71.6,8,71.6,1
CCCCCCC[C@@H](O)CC(=O)N[C@H](CCN)C(=O)N[C@H]1CCNC(=O)[C@H]([C@@H](C)O)NC(=O)[C@H](CCN)NC(=O)[C@H](CCN)NC(=O)[C@H](CC(C)C)NC(=O)[C@@H](CC(C)C)NC(=O)[C@H](CCN)NC1=O,16,0.5,> 64,> 64,16,64,8,0.5,64,2,4,1,64,8,0.5,206,16,51.5,8
CCCCCCCCC(=O)N[C@H](CCN)C(=O)N[C@H]1CCNC(=O)[C@H](CC(C)C)NC(=O)[C@H](CCN)NC(=O)[C@H](CCN)NC(=O)[C@H](CC(C)C)NC(=O)[C@@H](CC(C)C)NC(=O)[C@H](CCN)NC1=O,4,2,> 64,> 64,16,8,32,1,16,2,16,4,8,16,4,77.4,16,4.8,2
CCCCCCCCCC(=O)N[C@H](CCN)C(=O)N[C@H]1CCNC(=O)[C@H]([C@@H](C)O)NC(=O)[C@H](CCN)NC(=O)[C@H](CCN)NC(=O)[C@H](CC(=O)O)NC(=O)[C@@H](CC(C)C)NC(=O)[C@H](CCN)NC1=O,> 64,> 64,> 64,> 64,> 64,> 64,> 64,> 64,> 64,> 64,> 64,> 64,> 64,> 64,> 64,> 500,> 64,–,> 64
CCCCCCCCCC(=O)N[C@H](CCN)C(=O)N[C@H]1CCNC(=O)[C@H]([C@@H](C)O)NC(=O)[C@H](CCN)NC(=O)[C@H](CCN)NC(=O)[C@H](CC(C)C)NC(=O)[C@@H](Cc2ccc(C(C)(C)C)cc2)NC(=O)[C@H](CCN)NC1=O,0.5,4,4,4,4,16,2,2,2,2,1,2,16,2,4,15.9,4,15.9,2
CC[C@H](C)CCCCC(=O)N[C@@H](CCN)C(=O)N[C@H](C(=O)N[C@@H](CCN)C(=O)N[C@H]1CCNC(=O)[C@H]([C@@H](C)O)NC(=O)[C@H](CCN)NC(=O)[C@H](CCN)NC(=O)[C@H](CC(C)C)NC(=O)[C@@H](Cc2ccccc2)NC(=O)[C@H](CCN)NC1=O)[C@@H](C)O (X1-[Dab]T[Dab][Dab][Dab][dF]L[Dab][Dab]T; lactam 4-C),–,–,–,–,–,–,–,–,–,–,–,–,–,–,–,55.9,–,> 932,–
CCCCCCCCCC(=O)N[C@H](CCN)C(=O)N[C@H]1CNC(=O)[C@H]([C@@H](C)O)NC(=O)[C@H](CCN)NC(=O)[C@H](CCN)NC(=O)[C@H](CC(C)C)NC(=O)[C@@H](CC(C)C)NC(=O)[C@H](CCN)NC1=O,1,> 64,> 64,> 64,> 64,> 64,> 64,> 64,32,> 64,< 64,> 64,> 64,> 64,> 64,68.6,> 64,–,> 64
